Laboratory results as given in patent US20220175777A1, “Inhibitors of Multidrug Resistance Transporter P-Glycoprotein” (Southern Methodist University, priority 2014, published 2022).

Key:
[1] = target: Normal Human MDR1 P-glycoprotein (Homo sapiens, UniProt P08183); test: ATP hydrolysis by human P-gp assembled into membrane nanodiscs; assay type: biochemical; settings: human MDR1 P-gp in nanodiscs
Source text: To assess whether the observed discrepancies of compounds stimulating basal P-gp ATPase activity but not being transport substrates of the human pump in the cell culture assessments were due to the fact that these biochemical assays used a cysteineless variant of the mouse MDR3 P-glycoprotein, the experiments were repeated using normal human MDR1 P-gp. In order to stabilize the human protein for the activity assays, the protein was assembled into membrane nanodiscs as described herein.

[2] = target: T1, Cysteineless Mouse MDR3 P-glycoprotein (Mus musculus, UniProt P21447, C1070A/C1121A/C1223A/C133A/C427A/C638A/C669A/C713A/C952A); test: ATP hydrolysis by purified P-glycoprotein, basal and verapamil-stimulated; assay type: biochemical; settings: for Stimulated ATPase (% of DMSO): in the presence of verapamil; for Stimulated ATPase (% of DMSO) / Basal ATPase (% of DMSO): ± standard deviation; for Effect on basal ATPase / Basal ATPase (% of DMSO): without added transport substrate
T1 construct: made in house; host or cells: Pichia pastoris
T1 sequence (P21447 whole entry C133A/C427A/C638A/C669A/C713A/C952A/C1070A/C1121A/C1223A): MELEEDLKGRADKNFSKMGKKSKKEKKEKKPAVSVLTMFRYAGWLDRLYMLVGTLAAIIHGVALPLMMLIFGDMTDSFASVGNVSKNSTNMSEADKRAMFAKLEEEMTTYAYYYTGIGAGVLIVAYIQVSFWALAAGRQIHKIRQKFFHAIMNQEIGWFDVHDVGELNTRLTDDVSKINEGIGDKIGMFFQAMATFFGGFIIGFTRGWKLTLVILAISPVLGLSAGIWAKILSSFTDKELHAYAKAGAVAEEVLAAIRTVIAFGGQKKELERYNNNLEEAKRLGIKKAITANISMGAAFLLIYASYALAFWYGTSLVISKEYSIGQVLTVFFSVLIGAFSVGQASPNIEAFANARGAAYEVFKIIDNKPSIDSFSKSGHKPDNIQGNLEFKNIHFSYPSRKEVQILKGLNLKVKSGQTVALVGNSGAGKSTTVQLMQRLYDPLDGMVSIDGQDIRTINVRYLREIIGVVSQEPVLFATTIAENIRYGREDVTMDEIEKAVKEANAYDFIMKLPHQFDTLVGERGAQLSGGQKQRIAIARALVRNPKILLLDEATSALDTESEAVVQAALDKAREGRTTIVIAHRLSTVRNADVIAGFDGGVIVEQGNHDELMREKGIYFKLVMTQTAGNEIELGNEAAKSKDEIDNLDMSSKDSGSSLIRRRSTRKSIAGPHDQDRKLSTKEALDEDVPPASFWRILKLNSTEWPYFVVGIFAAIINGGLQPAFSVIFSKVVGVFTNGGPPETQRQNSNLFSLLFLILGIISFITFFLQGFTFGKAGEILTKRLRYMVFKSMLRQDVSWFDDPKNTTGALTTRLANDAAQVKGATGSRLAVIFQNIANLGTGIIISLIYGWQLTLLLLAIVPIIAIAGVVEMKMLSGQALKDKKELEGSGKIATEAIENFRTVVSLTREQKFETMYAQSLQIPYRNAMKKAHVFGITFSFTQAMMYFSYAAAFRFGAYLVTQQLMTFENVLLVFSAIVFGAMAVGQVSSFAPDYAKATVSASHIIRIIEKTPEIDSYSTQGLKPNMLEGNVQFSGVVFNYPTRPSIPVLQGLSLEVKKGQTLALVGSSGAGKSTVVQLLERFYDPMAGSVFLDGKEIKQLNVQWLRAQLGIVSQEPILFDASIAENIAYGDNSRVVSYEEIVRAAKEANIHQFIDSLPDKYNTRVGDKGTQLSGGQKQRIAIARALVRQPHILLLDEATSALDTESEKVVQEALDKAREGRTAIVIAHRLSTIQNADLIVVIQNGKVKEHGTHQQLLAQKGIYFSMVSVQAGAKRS
Source text: The efficacy of molecules identified using in silico methods to function as potential inhibitors of P-glycoprotein was initially tested with regard to their capability to inhibit ATP hydrolysis by purified P-glycoprotein. For this purpose, a well-established activity assay for ATP hydrolyzing enzymes that uses the oxidation of NADH to NAD+ through coupling the reactions of pyruvate kinase and lactate dehydrogenase to the hydrolysis of ATP was adapted to medium throughput conditions on 96 well plates. […] In this set-up, the effects of potential small molecule inhibitors on the ATP hydrolysis activity of P-glycoprotein were tested in duplicate or triplicate and were repeated at least two times using different enzyme preparations.
The P-glycoprotein used in these assays was a close relative of the human P-glycoprotein that is found in mice. A mutant version of the mouse P-glycoprotein where all intrinsic cysteine amino acids had been replaced by alanine residues was recombinantly expressed in the yeast Pichia pastoris and used for these initial tests. […] Prior to testing the ATP-hydrolysis activity, P-glycoprotein was incubated with phosphatidyl choline for stabilization of the enzyme during the assay.
Different concentrations of the to-be-tested small molecules were added and pre-incubated at 37° C. The ATP hydrolysis reaction was then started by adding equal volume of double concentrated ATPase cocktail. The final ATP concentration in the reaction was 2 mM. The reaction was allowed to proceed for 20 minutes, the rate of ATP hydrolysis was calculated using the molar extinction coefficient of NADH, and the one-to-one relationship of ATP hydrolyzed and NADH oxidized.
Evaluation of mode of inhibition of P-glycoprotein by Group 1 and Group 2 variants of compound 29. To assess the mode of inhibition of P-gp by the novel variants of P-gp inhibitor 29, ATP hydrolysis by P-gp was evaluated in the presence or absence of the variants. […] Murine P-gp (MDR3) expressed in Pichia pastoris that had all naturally occurring cysteines replaced with alanine, was used^45, 46. It is widely assumed that the ATP hydrolytic rate of P-gp is stimulated in the presence of transport substrates when compared to ATP hydrolysis in the absence of transport substrates. Assays comparing these rates can therefore be useful not only in identifying inhibitors of P-gp catalyzed ATP hydrolysis, but also to potentially infer whether a compound might be a transport substrate if basal ATPase rates are stimulated by the addition of a compound.

[3] = target: T1, Cysteineless Mouse MDR3 P-glycoprotein; test: SL-ATP binding to P-gp by ESR spectroscopy; settings: SL-ATP titration in presence of compound
Source text: Determination of the possible mode of ATP hydrolysis inhibition by the identified P-glycoprotein inhibitors. The mode of hydrolysis of ATP by P-glycoprotein was investigated by measuring the maximal binding stoichiometry and binding affinity of an analog of ATP, SL-ATP, and by Electron Spin Resonance (ESR) spectroscopy, similar to in both the presence and absence of the identified inhibitors.
The high-field signal of the freely mobile, unbound SL-ATP is compared and is used to calculate the amount of ATP-analog bound to P-glycoprotein. Binding of SL-ATP in the absence of any P-glycoprotein inhibitor saturated at about 2 mol of SL-nucleotide bounds per mol of P-glycoprotein.
FIGS. 2A-2D are plots showing the effects of P-glycoprotein ATP hydrolysis inhibitors on nucleotide binding. Between 30 and 50 microM Pgp were incubated with 50 microM inhibitor compound. Increasing amounts of SL-ATP were added. The ESR signal of the free SL-ATP in the presence of P-glycoprotein and inhibitor was compared to that in the absence of P-glycoprotein. The graphs represent at least 3 individual studies each using 3 to 5 different P-glycoprotein preparations.

P-gp = P-gp (Homo sapiens, UniProt P08183); settings: for Transport substrate for P-gp: not told
P-gp, sequence (P08183 whole entry): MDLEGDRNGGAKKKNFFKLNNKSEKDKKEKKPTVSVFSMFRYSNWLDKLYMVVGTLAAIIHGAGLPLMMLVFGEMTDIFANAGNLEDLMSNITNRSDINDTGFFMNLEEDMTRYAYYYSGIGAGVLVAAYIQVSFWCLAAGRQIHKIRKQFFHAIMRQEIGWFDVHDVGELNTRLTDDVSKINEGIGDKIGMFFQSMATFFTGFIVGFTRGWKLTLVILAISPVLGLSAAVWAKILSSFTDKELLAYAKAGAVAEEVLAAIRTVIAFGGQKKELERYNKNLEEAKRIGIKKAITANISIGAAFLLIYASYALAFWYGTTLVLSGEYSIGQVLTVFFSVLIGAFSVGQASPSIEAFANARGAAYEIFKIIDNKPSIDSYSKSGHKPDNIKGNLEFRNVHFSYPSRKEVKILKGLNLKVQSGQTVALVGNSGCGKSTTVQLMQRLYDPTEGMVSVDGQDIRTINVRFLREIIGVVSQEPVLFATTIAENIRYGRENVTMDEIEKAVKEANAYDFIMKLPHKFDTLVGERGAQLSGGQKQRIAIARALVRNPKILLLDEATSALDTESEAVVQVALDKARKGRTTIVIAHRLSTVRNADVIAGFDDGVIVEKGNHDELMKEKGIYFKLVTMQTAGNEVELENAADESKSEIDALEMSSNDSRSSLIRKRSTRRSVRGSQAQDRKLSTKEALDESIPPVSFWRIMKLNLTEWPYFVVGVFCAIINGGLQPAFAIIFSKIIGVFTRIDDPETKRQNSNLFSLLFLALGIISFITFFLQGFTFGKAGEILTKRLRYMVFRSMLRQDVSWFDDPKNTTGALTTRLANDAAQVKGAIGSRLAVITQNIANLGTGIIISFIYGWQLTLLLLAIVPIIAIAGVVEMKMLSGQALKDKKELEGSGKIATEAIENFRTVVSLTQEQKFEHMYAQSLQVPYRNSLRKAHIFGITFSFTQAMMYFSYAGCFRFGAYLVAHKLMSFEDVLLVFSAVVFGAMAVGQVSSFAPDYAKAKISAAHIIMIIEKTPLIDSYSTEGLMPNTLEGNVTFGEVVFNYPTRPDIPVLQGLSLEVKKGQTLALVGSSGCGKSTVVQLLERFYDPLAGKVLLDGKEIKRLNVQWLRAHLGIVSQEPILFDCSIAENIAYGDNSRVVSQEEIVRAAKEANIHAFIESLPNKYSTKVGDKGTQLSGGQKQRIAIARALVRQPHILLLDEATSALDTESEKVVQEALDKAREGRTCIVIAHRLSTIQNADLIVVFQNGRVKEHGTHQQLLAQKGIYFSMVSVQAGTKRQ
Procedure: Stimulation of basal ATPase by 29-variants was used as an indicator that a compound may be a P-gp transport substrate. Effects on stimulated P-gp ATPase activity indicated whether a compound directly interfered with ATP usage by the protein (***, p<0.001; **, p<0.01; *, p<0.1; NS, not significant). Quantitative cellular accumulation of 29-variants was performed using LC-MS/MS and is presented as a ratio of the cellular amounts of 29-variants in the presence of P-gp inhibitor, tariquidar, divided by amounts accumulated in its absence. […] Binding of an ATP analog, SL-ATP, to P-gp was used to determine whether ATP binding to P-gp was affected by the 29-variants. Values+/−standard deviations are shown for at least three different P-gp preparations and three independent SL-ATP titration experiments. The values for SL-ATP binding in the presence of 29 were taken directly from Brewer et al. (2014).
Intracellular accumulation of compound 29 variants. Cell accumulation assays for each of the 29 variants were performed as in reference^28 to more directly assess whether the compounds were indeed transport substrates for P-gp.

DU145TXR = test: Resensitization of DU145TXR to paclitaxel by 29 variants (MTT cell viability); assay type: cell-based, human; settings: for Fold vs PTX ÷ 29: compared to parental compound 29
Source text: The Group 1 ChemGen/docking routine produced variants of P-gp inhibitor 29 resensitize a multidrug resistant, P-gp overexpressing prostate cancer cell line to paclitaxel. The mitochondrial reduction potential of cells is often used as an indicator for cell viability using MTT assays^40-42. Using these assays it was observed that the five Group 1 derivatives of 29 predicted through the ChemGen/docking routine and synthesized here, 216, 227, 231, 541 and 551, re-sensitized the P-gp overexpressing prostate cancer cell line, DU145TXR^33, to the chemotherapeutic, paclitaxel (FIG. 9, showing results of assays at concentrations of 3 μM, 5 μM, 7 μM, and 10 μM).
Cytotoxicity of the chemotherapeutic, paclitaxel (PTX) to P-gp overexpressing prostate cancer cells, DU145TXR, was determined in the absence and presence of the ChemGen designed 29-variants, 216, 227, 231, 541 and 551. For each experimental compound IC50 values of PTX alone or in the presence of inhibitors, fold improvement of PTX sensitivity in the presence of inhibitor, and fold improvement of PTX sensitivity by variants compared to parental compound 29 are given.

[4] = 3 μM inhibitor, fold improvement of PTX sensitivity vs PTX alone

Normal Human MDR1 P-glycoprotein, sequence (P08183 whole entry): as above

Basal ATPase (% of DMSO) [1]	Stimulated ATPase (% of DMSO) [1]	Stimulated ATPase (% of DMSO) [2]	Basal ATPase (% of DMSO) [2]	Maximum ATP binding mol SL-ANP bound/mol P-gp [3] [mol SL-ANP bound/mol P-gp]	Transport substrate for P-gp (P-gp)	Structure (SMILES)	Effect on basal ATPase ([2]; listed as 280)	Intracellular accumulation in the presence versus absence of TQR (P-gp)	Effect on basal ATPase ([2]; listed as 286)	Fold vs PTX ÷ 29 (DU145TXR; 3 μM inhibitor, listed as 227) [Fold]	Fold vs PTX (DU145TXR; [4]) [Fold]	Fold vs PTX ÷ 29 (DU145TXR; 5 μM inhibitor) [Fold]	Fold vs PTX (DU145TXR; 5 μM inhibitor, vs PTX alone) [Fold]	Fold vs PTX ÷ 29 (DU145TXR; 7 μM inhibitor) [Fold]	Fold vs PTX (DU145TXR; 7 μM inhibitor, vs PTX alone) [Fold]	Fold vs PTX ÷ 29 (DU145TXR; 10 μM inhibitor) [Fold]	Fold vs PTX (DU145TXR; 10 μM inhibitor, vs PTX alone) [Fold]	Fold vs PTX ÷ 29 (DU145TXR; 3 μM inhibitor, listed as 231) [Fold]
76 ± 8 % of DMSO	54 ± 7 % of DMSO	116 ± 4 % of DMSO	148 ± 4 % of DMSO	1.6 ± 0.1		Cc1cc(C)c(-c2cc(NC(=O)CSCC(=O)NC(c3ccccc3)c3ccccc3)n(-c3ccccc3)n2)cc1C [SMU29-280]	stimulated basal ATPase only marginally or with no statistical significance	did not show significantly different intracellular accumulations										
84 ± 9 % of DMSO	59 ± 6 % of DMSO	123 ± 15 % of DMSO	355 ± 7 % of DMSO	1.9 ± 0.1	very likely to be transport substrates	Cc1cc(C)c(-c2cc(NC(=O)CSCC(=O)Nc3ccc4ncsc4c3)n(-c3ccccc3)n2)cc1C [SMU29-255]		more modest, but statistically significant increases										
						COc1cccc2c1C(=O)c1c(O)c3c(c(O)c1C2=O)C[C@@](O)(C(C)=O)C[C@@H]3O[C@H]1C[C@H](N)[C@H](O)[C@H](C)O1 [DNR, Daunorubicin, reference compound]		very strong cellular accumulation										
95 ± 3 % of DMSO	59 ± 4 % of DMSO	98 ± 2 % of DMSO	143 ± 32 % of DMSO	1.9 ± 0.1	very likely to be transport substrates	Cc1cc(C)c(-c2cc(NC(=O)CSCC(=O)NCc3ccc(F)cc3)n(-c3ccccc3)n2)cc1C [SMU29-286]		more modest, but statistically significant increases	stimulated basal ATPase only marginally or with no statistical significance									
83 ± 7 % of DMSO	62 ± 5 % of DMSO	50 ± 2 % of DMSO	88 ± 4 % of DMSO	1.8 ± 0.1		Cc1cc(C)c(-c2cc(NC(=O)CSCC(=O)N3c4ccccc4CCc4ccccc43)n(-c3ccccc3)n2)cc1C [SMU29-227]				3.8	13	3.7	41	10	353	5	530	
89 ± 7 % of DMSO	61 ± 7 % of DMSO	194 ± 22 % of DMSO	1143 ± 46 % of DMSO	1.2 ± 0.1	very likely to be transport substrates	COc1cc(NC(=O)CSCC(=O)Nc2cc(-c3cc(C)c(C)cc3C)nn2-c2ccccc2)cc(OC)c1OC [SMU29-238]		very large and significant increase										
70 ± 4 % of DMSO	40 ± 3 % of DMSO	141 ± 18 % of DMSO	70 ± 0 % of DMSO	1.6 ± 0.1		Cc1cc(C)c(-c2cc(NC(=O)CSCC(=O)Nc3ccc4ccccc4c3)n(-c3ccccc3)n2)cc1C [SMU29-231]					14	4.2	46	3.4	303	11	1060	4.1

Structure (SMILES)	Basal ATPase (% of DMSO) [1]	Stimulated ATPase (% of DMSO) [1]	Stimulated ATPase (% of DMSO) [2]	Basal ATPase (% of DMSO) [2]	Maximum ATP binding mol SL-ANP bound/mol P-gp [3] [mol SL-ANP bound/mol P-gp]	Transport substrate for P-gp (P-gp)	Effect on basal ATPase ([2]; listed as 280)	Intracellular accumulation in the presence versus absence of TQR (P-gp)	Effect on basal ATPase ([2]; listed as 286)	Fold vs PTX ÷ 29 (DU145TXR; 3 μM inhibitor, listed as 227) [Fold]	Fold vs PTX (DU145TXR; [4]) [Fold]	Fold vs PTX ÷ 29 (DU145TXR; 5 μM inhibitor) [Fold]	Fold vs PTX (DU145TXR; 5 μM inhibitor, vs PTX alone) [Fold]	Fold vs PTX ÷ 29 (DU145TXR; 7 μM inhibitor) [Fold]	Fold vs PTX (DU145TXR; 7 μM inhibitor, vs PTX alone) [Fold]	Fold vs PTX ÷ 29 (DU145TXR; 10 μM inhibitor) [Fold]	Fold vs PTX (DU145TXR; 10 μM inhibitor, vs PTX alone) [Fold]	Fold vs PTX ÷ 29 (DU145TXR; 3 μM inhibitor, listed as 231) [Fold]
Cc1cc(C)c(-c2cc(NC(=O)CSCC(=O)NC34CC5CC(CC(C5)C3)C4)n(-c3ccccc3)n2)cc1C [SMU29-278]	74 ± 6 % of DMSO	63 ± 6 % of DMSO	41 ± 7 % of DMSO	78 ± 4 % of DMSO	1.3 ± 0.1	very unlikely to be a transport substrate		did not show significantly different intracellular accumulations										
